From paper PMC5887109, “Unravelling the Molecular Determinants of Bee Sensitivity to Neonicotinoid Insecticides” (Current Biology, 2018)

Columns and labels:
[1] = molecular target: T1, CYP9Q4 (Bombus terrestris, UniProt A0A9B0BBT5); assay: Activity of recombinant CYP9Q4 against fluorescent coumarin model substrates; assay type: biochemical, B. terrestris
Protocol: (§1) The activity of individual A. mellifera and B. terrestris recombinant P450s were tested against seven fluorescent model substrates (all purchased from Sigma); 7-methoxy-coumarin (MC), 7-Methoxy-4-(tri-fluoromethyl)-coumarin (MFC), 7-ethoxy-coumarin (EC), 7-benzyloxy-4-(trifluoromethyl)-coumarin (BFC), 7-ethoxy-4-trifluoro-methylcoumarin (EFC), 7-benzyloxymethoxy-4-trifluoromethyl coumarin (BOMFC), and 7-p-methoxy-benzyloxy-4-trifluoro coumarin (MOBFC). Assays were carried out in black flat-bottomed 96-well plates in a 100 μL reaction containing 2 pmol of P450 per 50 μg of protein (B. terrestris) or 50 μg/well (A. mellifera), 1 mM of NADPH (Sigma) and […] of a model substrate (Sigma). Three replicates were carried out for each data point. P450s incubated without NADPH and wells containing only potassium phosphate buffer served as controls. Samples were incubated at 25°C for 45 min (B. terrestris) or 30°C for 30 min (A. mellifera). Data were recorded using a SpectraMax Gemini XPS (B. terrestris) or a SpectraMax M2 (A. mellifera) at the excitation/emission wavelength suitable for each model substrate (MC, EC at 390-465, BFC, MFC at 410-535, EFC at 410-510 and BOMFC and MOBFC at 405-510 nm). As these substrates have a similar emission wavelength to NADPH (460 nm) the reaction was terminated prior to measurement by the addition of 100μL of a stop solution (25% DMSO, 0.05 M Tris/HCL pH10, 5 mM glutathione oxidised, and 0.2 U glutathione reductase). The reactions were incubated at 25°C (B. terrestris) or 30°C (A. mellifera) for a further 15 min and the data were recorded at the required excitation/emission wavelengths stated above. 7-hydroxy-4-(trifluoromethyl)-coumarin (HFC) (Sigma) was used to generate a standard curve for model substrates BFC, EFC, MFC, MOBFC, and BOMFC and 7-hydroxycoumarin (HC) (Sigma) for model substrates EC and MC. […] The florescence was measured as above at the corresponding wavelengths for each model substrate. […] This was then subtracted from the average fluorescence measurement of each P450 along with the average control measurements.

[2] = molecular target: T2, CYP9Q1 (Apis mellifera, UniProt A0A7M7GTV9); assay: Activity of recombinant CYP9Q1 against fluorescent coumarin model substrates; assay type: biochemical, A. mellifera
Protocol: as §1, with “Three replicates were carried out for each data point. P450s incubated without NADPH and wells containing only potassium phosphate buffer served as controls. Samples were incubated at 25°C for 45 min (B. terrestris) or 30°C for 30 min (A. mellifera).” left out, “As these substrates have a similar emission wavelength to NADPH (460 nm) the reaction was terminated prior to measurement by the addition of 100μL of a stop solution (25% DMSO, 0.05 M Tris/HCL pH10, 5 mM glutathione oxidised, and 0.2 U glutathione reductase).” left out, “above.” for “above. 7-hydroxy-4-(trifluoromethyl)-coumarin (HFC) (Sigma) was used to generate a standard curve for model substrates BFC, EFC, MFC, MOBFC, and BOMFC and 7-hydroxycoumarin (HC) (Sigma) for model substrates EC and MC.”

[3] = molecular target: T3, CYP9Q3 (Apis mellifera, UniProt A0A7M7LMV1); assay: Activity of recombinant CYP9Q3 against fluorescent coumarin model substrates; assay type: biochemical, A. mellifera
Protocol: as §1, with “Three replicates were carried out for each data point. P450s incubated without NADPH and wells containing only potassium phosphate buffer served as controls. Samples were incubated at 25°C for 45 min (B. terrestris) or 30°C for 30 min (A. mellifera).” left out, “As these substrates have a similar emission wavelength to NADPH (460 nm) the reaction was terminated prior to measurement by the addition of 100μL of a stop solution (25% DMSO, 0.05 M Tris/HCL pH10, 5 mM glutathione oxidised, and 0.2 U glutathione reductase).” left out, “above.” for “above. 7-hydroxy-4-(trifluoromethyl)-coumarin (HFC) (Sigma) was used to generate a standard curve for model substrates BFC, EFC, MFC, MOBFC, and BOMFC and 7-hydroxycoumarin (HC) (Sigma) for model substrates EC and MC.”

[4] = tested on: CYP9Q5; assay: Activity of recombinant CYP9Q5 against fluorescent coumarin model substrates; assay type: biochemical, B. terrestris
Protocol: as §1, with “Three replicates were carried out for each data point. P450s incubated without NADPH and wells containing only potassium phosphate buffer served as controls. Samples were incubated at 25°C for 45 min (B. terrestris) or 30°C for 30 min (A. mellifera).” left out, “As these substrates have a similar emission wavelength to NADPH (460 nm) the reaction was terminated prior to measurement by the addition of 100μL of a stop solution (25% DMSO, 0.05 M Tris/HCL pH10, 5 mM glutathione oxidised, and 0.2 U glutathione reductase).” left out, “above.” for “above. 7-hydroxy-4-(trifluoromethyl)-coumarin (HFC) (Sigma) was used to generate a standard curve for model substrates BFC, EFC, MFC, MOBFC, and BOMFC and 7-hydroxycoumarin (HC) (Sigma) for model substrates EC and MC.”

[5] = molecular target: T4, CYP9Q2 (Apis mellifera, UniProt A0A7M7R6F2); assay: in vitro; settings: hydroxylation (thiacloprid, imidacloprid) or N-desmethylation (acetamiprid)
T4 sequence (A0A7M7R6F2 1-532): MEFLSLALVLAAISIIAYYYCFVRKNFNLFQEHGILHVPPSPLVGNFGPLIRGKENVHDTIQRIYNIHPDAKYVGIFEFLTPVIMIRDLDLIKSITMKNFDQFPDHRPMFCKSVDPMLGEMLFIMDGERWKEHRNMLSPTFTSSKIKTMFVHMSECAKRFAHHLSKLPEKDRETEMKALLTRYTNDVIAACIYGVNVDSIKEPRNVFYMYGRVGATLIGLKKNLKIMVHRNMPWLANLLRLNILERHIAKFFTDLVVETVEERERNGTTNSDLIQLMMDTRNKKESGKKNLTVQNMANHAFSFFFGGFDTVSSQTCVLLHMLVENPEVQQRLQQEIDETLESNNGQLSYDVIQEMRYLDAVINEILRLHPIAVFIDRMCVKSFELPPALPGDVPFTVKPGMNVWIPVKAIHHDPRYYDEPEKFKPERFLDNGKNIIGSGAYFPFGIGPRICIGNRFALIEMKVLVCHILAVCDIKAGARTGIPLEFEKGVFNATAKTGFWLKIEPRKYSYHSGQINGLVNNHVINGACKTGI
T4 sequence (Q07994 1-671 partner): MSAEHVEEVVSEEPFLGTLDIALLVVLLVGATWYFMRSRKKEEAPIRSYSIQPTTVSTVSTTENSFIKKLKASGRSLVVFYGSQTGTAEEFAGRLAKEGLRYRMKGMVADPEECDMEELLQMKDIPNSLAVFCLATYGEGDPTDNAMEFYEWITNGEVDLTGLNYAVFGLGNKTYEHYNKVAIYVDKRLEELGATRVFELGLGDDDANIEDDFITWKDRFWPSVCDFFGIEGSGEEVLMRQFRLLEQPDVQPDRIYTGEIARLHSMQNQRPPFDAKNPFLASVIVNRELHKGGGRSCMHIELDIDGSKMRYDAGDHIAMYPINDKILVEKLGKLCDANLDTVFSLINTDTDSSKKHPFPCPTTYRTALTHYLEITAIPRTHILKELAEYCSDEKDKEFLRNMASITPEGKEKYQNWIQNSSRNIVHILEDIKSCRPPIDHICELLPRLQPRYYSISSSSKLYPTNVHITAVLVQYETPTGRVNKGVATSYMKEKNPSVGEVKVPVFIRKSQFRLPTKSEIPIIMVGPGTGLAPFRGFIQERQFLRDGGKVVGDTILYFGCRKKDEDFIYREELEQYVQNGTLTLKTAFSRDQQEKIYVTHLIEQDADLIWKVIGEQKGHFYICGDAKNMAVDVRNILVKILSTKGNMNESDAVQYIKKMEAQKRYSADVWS
Excerpt: (§2) All bee P450 (see Table S3 for accession numbers) and house fly NADPH-dependent cytochrome P450 reductase (CPR) (GenBank accession number Q07994) genes were obtained by gene synthesis (Geneart, CA, USA) and inserted into the pDEST8 expression vector (Invitrogen). Codon optimization of all bee genes was used to optimize expression in lepidopteran cell lines. The PFastbac1 vector with no inserted DNA was used to produce a control virus. The recombinant baculovirus DNA was constructed and transfected into Trichoplusia ni (High five cells, Thermo Fisher) using the Bac-to-Bac baculovirus expression system (Invitrogen) according to the manufacturer’s instructions. The titer of the recombinant virus was determined following protocols of the supplier. High Five cells grown to a density of 2 × 10^6 cells ml^-1 were co-infected with recombinant baculoviruses containing each bee P450 and CPR with a range of MOI (multiplicity of infection) ratios to identify the optimal conditions. Control cells were co-infected with the baculovirus containing vector with no insert (ctrl-virus) and the recombinant baculovirus expressing CPR using the same MOI ratios. Ferric citrate and δ-aminolevulinic acid hydrochloride were added to a final concentration of 0.1 mM at the time of infection and 24 h after infection to compensate the low levels of endogenous heme in the insect cells. After 48 h, cells were harvested, washed with PBS, and microsomes of the membrane fraction prepared according to standard procedures and stored at −80°C [31]. Briefly, pellets were homogenized for 30 s in 0.1M Na/K-phosphate buffer, pH 7.4 containing 1mM EDTA and DTT and 200mM sucrose using a Fastprep (MP Biomedicals), filtered through miracloth and centrifuging for 10 min at 680 g at 4°C. The supernatant was then centrifuged for 1 h at 100,000 g at 4°C, with the pellet subsequently resuspended in 0.1M Na/K-phosphate buffer, pH 7.6 containing 1mM EDTA and DTT and 10% glycerol using a Dounce tissue grinder. P450 expression and functionality was estimated by measuring CO-difference spectra in reduced samples using a Specord 200 Plus Spectrophotometer (Analytik Jena) and scanning from 500 nm to 400 nm. The protein content of samples was determined using Bradford reagent (Sigma) and bovine serum albumin (BSA) as a reference.
(§3) The total assay volume was 200 μL using three replicates for each data point. Microsomes incubated without NADPH served as a control. The assay was stopped by the addition of ice-cold acetonitrile (to 80% final concentration), centrifuged for 10 min at 3000 g and the supernatant subsequently analyzed by tandem mass spectrometry as described previously. For the chromatography on a Waters Acquity HSS T3 column (2.1x50mm, 1.8μm), acetonitrile/water/0.1% formic acid was used as the eluent in gradient mode. […] The peak integrals were calibrated externally against a standard calibration curve. […] Substrate turnover from two independent reactions were plotted versus controls and Michaelis-Menten kinetics determined using GraphPad Prism version 7 (GraphPad Software, CA, USA).

[6] = molecular target: T3, CYP9Q3; assay: in vitro; settings: hydroxylation (thiacloprid, imidacloprid) or N-desmethylation (acetamiprid)
Excerpt: as §2, §3

[7] = molecular target: T2, CYP9Q1; assay: in vitro; settings: hydroxylation (thiacloprid, imidacloprid) or N-desmethylation (acetamiprid)
Excerpt: as §2, §3

[8] = molecular target: T1, CYP9Q4; assay: Metabolism by recombinant CYP9Q4/CPR microsomes, LC-MS/MS; settings: hydroxylation (thiacloprid) or N-desmethylation (acetamiprid)
Excerpt: as §2
(§4) The total assay volume was 200 μL using three replicates for each data point. […] The assay was stopped by the addition of ice-cold acetonitrile (to 80% final concentration), centrifuged for 10 min at 3000 g and the supernatant subsequently analyzed by tandem mass spectrometry as described previously. […] Substrate turnover from two independent reactions were plotted versus controls and Michaelis-Menten kinetics determined using GraphPad Prism version 7 (GraphPad Software, CA, USA).

[9] = tested on: CYP9Q5; assay: Metabolism by recombinant CYP9Q5/CPR microsomes, LC-MS/MS; settings: hydroxylation (thiacloprid) or N-desmethylation (acetamiprid)
Excerpt: as §2, §4

[10] = tested on: honeybee; settings: cited from earlier work

T1 sequence (A0A9B0BBT5 entry or part of it, one chain of several): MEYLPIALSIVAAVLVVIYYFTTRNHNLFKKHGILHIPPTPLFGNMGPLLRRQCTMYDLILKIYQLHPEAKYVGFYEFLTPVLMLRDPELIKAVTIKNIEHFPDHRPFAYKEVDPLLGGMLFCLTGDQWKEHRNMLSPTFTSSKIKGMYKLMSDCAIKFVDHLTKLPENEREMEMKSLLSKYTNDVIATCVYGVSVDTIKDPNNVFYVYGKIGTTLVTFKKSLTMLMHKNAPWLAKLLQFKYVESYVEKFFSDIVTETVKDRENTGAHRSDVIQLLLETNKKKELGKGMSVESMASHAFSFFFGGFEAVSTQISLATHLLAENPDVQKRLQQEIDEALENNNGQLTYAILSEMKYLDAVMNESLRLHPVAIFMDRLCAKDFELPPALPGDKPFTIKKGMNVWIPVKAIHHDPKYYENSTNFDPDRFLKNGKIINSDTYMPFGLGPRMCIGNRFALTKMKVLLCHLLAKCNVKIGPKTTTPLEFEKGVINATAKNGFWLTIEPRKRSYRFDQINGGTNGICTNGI
T3 sequence (A0A7M7LMV1 entry or part of it, one chain of several): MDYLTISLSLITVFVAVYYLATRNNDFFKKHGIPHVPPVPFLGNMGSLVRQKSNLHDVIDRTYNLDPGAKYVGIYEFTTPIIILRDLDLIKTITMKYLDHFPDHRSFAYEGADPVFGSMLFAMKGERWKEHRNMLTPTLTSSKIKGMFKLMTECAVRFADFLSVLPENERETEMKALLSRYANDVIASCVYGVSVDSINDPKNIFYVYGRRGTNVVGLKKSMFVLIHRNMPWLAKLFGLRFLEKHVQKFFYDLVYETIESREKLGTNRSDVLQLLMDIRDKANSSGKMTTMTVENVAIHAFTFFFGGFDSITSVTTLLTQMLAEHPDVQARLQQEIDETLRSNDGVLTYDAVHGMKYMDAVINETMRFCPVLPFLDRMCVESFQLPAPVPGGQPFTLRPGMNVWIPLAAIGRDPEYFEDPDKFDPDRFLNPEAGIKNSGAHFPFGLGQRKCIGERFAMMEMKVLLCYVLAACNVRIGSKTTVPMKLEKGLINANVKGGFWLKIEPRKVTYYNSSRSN
T2 sequence (A0A7M7GTV9 entry or part of it, one chain of several): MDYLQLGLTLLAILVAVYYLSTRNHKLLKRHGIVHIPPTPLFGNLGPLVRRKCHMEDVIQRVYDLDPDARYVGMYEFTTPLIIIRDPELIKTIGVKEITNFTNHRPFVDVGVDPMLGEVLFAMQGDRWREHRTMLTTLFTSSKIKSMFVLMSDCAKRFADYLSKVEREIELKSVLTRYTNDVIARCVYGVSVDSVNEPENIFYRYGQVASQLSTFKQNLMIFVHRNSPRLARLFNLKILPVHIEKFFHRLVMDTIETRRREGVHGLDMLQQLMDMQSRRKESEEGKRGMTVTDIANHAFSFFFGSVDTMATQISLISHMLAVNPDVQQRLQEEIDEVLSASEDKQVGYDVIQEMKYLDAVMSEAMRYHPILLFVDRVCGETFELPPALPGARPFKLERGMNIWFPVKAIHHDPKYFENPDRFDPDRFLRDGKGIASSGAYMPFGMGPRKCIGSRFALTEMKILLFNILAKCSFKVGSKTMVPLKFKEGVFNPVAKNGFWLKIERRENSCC

O=c1cc(C(F)(F)F)c2ccc(OCc3ccccc3)cc2o1 [BFC, 7-benzyloxy-4-trifluoromethyl coumarin]
activity against fluorescent coumarin model substrate (in words) [1]: no activity | activity against fluorescent coumarin model substrate (in words) [2]: highest specific activity | activity against fluorescent coumarin model substrate (in words) [3]: highest specific activity | activity against fluorescent coumarin model substrate (in words) [4]: no activity

COc1ccc2c(C(F)(F)F)cc(=O)oc2c1 [MFC, 7-methoxy-4-trifluoromethyl coumarin]
activity against fluorescent coumarin model substrate (in words) [1]: activity

COc1ccc(COc2ccc3c(C(F)(F)F)cc(=O)oc3c2)cc1 [MOBFC, 7-p-methoxy-benzyloxy-4-trifluoro coumarin]
activity against fluorescent coumarin model substrate (in words) [1]: activity

C/C(=N\C#N)N(C)Cc1ccc(Cl)nc1 [acetamiprid]
metabolism by the recombinant P450 (in words) [5]: highest activity | metabolism by the recombinant P450 (in words) [6]: highest activity | metabolism by the recombinant P450 (in words) [7]: capacity to metabolize | metabolism by the recombinant P450 (in words) [8]: highest activity | metabolism by the recombinant P450 (in words) [9]: highest activity

CCCC1COC(Cn2cncn2)(c2ccc(Cl)cc2Cl)O1 (stereo not shown) [propiconazole]
effect of P450 inhibitor on honeybee sensitivity to imidacloprid ([10]; synergist plus imidacloprid): almost no effect | increase of honeybee sensitivity to thiacloprid by P450 inhibitor ([10]; synergist plus thiacloprid): 559 fold
